Organism: Rattus norvegicus
Test: Open TG-GATES - Regimen: Single
Format: toxicity, organism-based, Sprague-Dawley
Parameters: regimen Single, gender Male, age 6 weeks
Conditions: in vivo, po, 0 mg/kg, route gavage, dose level Control; for APTT / Bas / Eos / Fbg / Hb / Ht / Lym / MCH / MCHC / MCV / Mono / Neu / PT / Plat / RBC / Ret / WBC: tissue Blood; for KIDNEY_L / KIDNEY_R / KIDNEY_TOTAL: tissue Kidney; for LIVER: tissue Liver; for A/G / ALP / ALT / AST / BUN / CRE / Ca / Cl / DBIL / GLC / IP / K / LDH / Na / PL / RALB / TBIL / TC / TG / TP / gamma-GTP: tissue Plasma

Question: Which TERMINAL_BW (3 h) does the source give for `CN1C(=O)OC(C)(C)C1=O` [TRIMETHADIONE] here?
Answer: 205.3 g

Question: What about the APTT (3 h) of the same molecule?
Answer: 17.8 s

Question: And the Bas (3 h)?
Answer: 0.2%

Question: And the Eos (3 h)?
Answer: 0.8%

Question: And the Fbg (3 h)?
Answer: 261 mg/dL

Question: What about the Hb (3 h) of the same molecule?
Answer: 13.4 g/dL

Question: And the Ht (3 h)?
Answer: 40.1%

Question: What about the Lym (3 h) of the same molecule?
Answer: 79.8%

Question: And the MCH (3 h)?
Answer: 21.8 pg

Question: And the MCHC (3 h)?
Answer: 33.5%

Question: And the MCV (3 h)?
Answer: 65.1 fL

Question: What about the Mono (3 h) of the same molecule?
Answer: 3%

Question: And the Neu (3 h)?
Answer: 16%

Question: What about the PT (3 h) of the same molecule?
Answer: 13.8 s

Question: And the Plat (3 h)?
Answer: 125.1 x10_4/uL

Question: And the RBC (3 h)?
Answer: 616.4 x10_4/ul

Question: What about the Ret (3 h) of the same molecule?
Answer: 8.2%

Question: And the WBC (3 h)?
Answer: 86.1 x10_2/uL

Question: What about the KIDNEY_L (3 h) of the same molecule?
Answer: 1 g

Question: And the KIDNEY_R (3 h)?
Answer: 0.9 g

Question: What about the KIDNEY_TOTAL (3 h) of the same molecule?
Answer: 1.9 g

Question: And the LIVER (3 h)?
Answer: 9 g

Question: And the A/G (3 h)?
Answer: 0.9

Question: And the ALP (3 h)?
Answer: 1845.4 IU/L

Question: And the ALT (3 h)?
Answer: 43.8 IU/L

Question: And the AST (3 h)?
Answer: 85 IU/L

Question: What about the BUN (3 h) of the same molecule?
Answer: 9.6 mg/dL

Question: And the CRE (3 h)?
Answer: 0.2 mg/dL

Question: What about the Ca (3 h) of the same molecule?
Answer: 10.6 mg/dL

Question: What about the Cl (3 h) of the same molecule?
Answer: 107.4 meq/L

Question: What about the DBIL (3 h) of the same molecule?
Answer: 0.006 mg/dL

Question: What about the GLC (3 h) of the same molecule?
Answer: 181.4 mg/dL

Question: What about the IP (3 h) of the same molecule?
Answer: 8.9 mg/dL

Question: What about the K (3 h) of the same molecule?
Answer: 4.2 meq/L

Question: What about the LDH (3 h) of the same molecule?
Answer: 152 IU/L

Question: And the Na (3 h)?
Answer: 140.6 meq/L

Question: What about the PL (3 h) of the same molecule?
Answer: 133.8 mg/dL

Question: What about the RALB (3 h) of the same molecule?
Answer: 2.5 g/dL

Question: What about the TBIL (3 h) of the same molecule?
Answer: 0.07 mg/dL

Question: What about the TC (3 h) of the same molecule?
Answer: 72.2 mg/dL

Question: And the TG (3 h)?
Answer: 42.6 mg/dL

Question: And the TP (3 h)?
Answer: 5.3 g/dL

Question: What about the gamma-GTP (3 h) of the same molecule?
Answer: 1.2 IU/L

Question: And the TERMINAL_BW (6 h)?
Answer: 205.6 g

Question: And the APTT (6 h)?
Answer: 18.9 s

Question: And the Bas (6 h)?
Answer: 0%

Question: And the Eos (6 h)?
Answer: 1%

Question: What about the Fbg (6 h) of the same molecule?
Answer: 284.2 mg/dL

Question: And the Hb (6 h)?
Answer: 13.1 g/dL

Question: What about the Ht (6 h) of the same molecule?
Answer: 39.6%

Question: And the Lym (6 h)?
Answer: 77.4%

Question: What about the MCH (6 h) of the same molecule?
Answer: 21.4 pg

Question: And the MCHC (6 h)?
Answer: 33.2%

Question: What about the MCV (6 h) of the same molecule?
Answer: 64.4 fL

Question: And the Mono (6 h)?
Answer: 2.4%

Question: What about the Neu (6 h) of the same molecule?
Answer: 19%

Question: And the PT (6 h)?
Answer: 13.8 s

Question: What about the Plat (6 h) of the same molecule?
Answer: 122.3 x10_4/uL

Question: And the RBC (6 h)?
Answer: 615.2 x10_4/ul

Question: What about the Ret (6 h) of the same molecule?
Answer: 8.7%

Question: What about the WBC (6 h) of the same molecule?
Answer: 78 x10_2/uL

Question: What about the KIDNEY_L (6 h) of the same molecule?
Answer: 0.9 g

Question: And the KIDNEY_R (6 h)?
Answer: 0.9 g

Question: And the KIDNEY_TOTAL (6 h)?
Answer: 1.9 g

Question: What about the LIVER (6 h) of the same molecule?
Answer: 8.6 g

Question: And the A/G (6 h)?
Answer: 0.9

Question: And the ALP (6 h)?
Answer: 1304.6 IU/L

Question: What about the ALT (6 h) of the same molecule?
Answer: 34.4 IU/L

Question: And the AST (6 h)?
Answer: 72.2 IU/L

Question: What about the BUN (6 h) of the same molecule?
Answer: 9 mg/dL

Question: What about the CRE (6 h) of the same molecule?
Answer: 0.2 mg/dL

Question: What about the Ca (6 h) of the same molecule?
Answer: 10.5 mg/dL

Question: What about the Cl (6 h) of the same molecule?
Answer: 108.2 meq/L

Question: What about the DBIL (6 h) of the same molecule?
Answer: 0.002 mg/dL

Question: What about the GLC (6 h) of the same molecule?
Answer: 176.4 mg/dL

Question: And the IP (6 h)?
Answer: 8.9 mg/dL

Question: What about the K (6 h) of the same molecule?
Answer: 4.2 meq/L

Question: And the LDH (6 h)?
Answer: 109.8 IU/L

Question: What about the Na (6 h) of the same molecule?
Answer: 140.6 meq/L

Question: What about the PL (6 h) of the same molecule?
Answer: 145.4 mg/dL

Question: And the RALB (6 h)?
Answer: 2.5 g/dL

Question: What about the TBIL (6 h) of the same molecule?
Answer: 0.064 mg/dL

Question: What about the TC (6 h) of the same molecule?
Answer: 83 mg/dL

Question: What about the TG (6 h) of the same molecule?
Answer: 49.6 mg/dL

Question: What about the TP (6 h) of the same molecule?
Answer: 5.4 g/dL

Question: And the gamma-GTP (6 h)?
Answer: 1.4 IU/L

Question: What about the TERMINAL_BW (9 h) of the same molecule?
Answer: 205.5 g

Question: And the APTT (9 h)?
Answer: 19.5 s

Question: What about the Bas (9 h) of the same molecule?
Answer: 0%

Question: What about the Eos (9 h) of the same molecule?
Answer: 0.8%

Question: And the Fbg (9 h)?
Answer: 276.8 mg/dL

Question: And the Hb (9 h)?
Answer: 13.5 g/dL

Question: What about the Ht (9 h) of the same molecule?
Answer: 40.8%

Question: And the Lym (9 h)?
Answer: 75.2%

Question: What about the MCH (9 h) of the same molecule?
Answer: 20.9 pg

Question: What about the MCHC (9 h) of the same molecule?
Answer: 33%

Question: What about the MCV (9 h) of the same molecule?
Answer: 63.4 fL

Question: What about the Mono (9 h) of the same molecule?
Answer: 2.2%

Question: What about the Neu (9 h) of the same molecule?
Answer: 21.4%

Question: And the PT (9 h)?
Answer: 13.7 s

Question: What about the Plat (9 h) of the same molecule?
Answer: 114.8 x10_4/uL

Question: And the RBC (9 h)?
Answer: 642.8 x10_4/ul

Question: And the Ret (9 h)?
Answer: 7.6%

Question: What about the WBC (9 h) of the same molecule?
Answer: 82.3 x10_2/uL

Question: What about the KIDNEY_L (9 h) of the same molecule?
Answer: 0.9 g

Question: And the KIDNEY_R (9 h)?
Answer: 0.9 g

Question: And the KIDNEY_TOTAL (9 h)?
Answer: 1.7 g

Question: What about the LIVER (9 h) of the same molecule?
Answer: 7.9 g

Question: What about the A/G (9 h) of the same molecule?
Answer: 0.9

Question: What about the ALP (9 h) of the same molecule?
Answer: 1637 IU/L

Question: And the ALT (9 h)?
Answer: 38 IU/L

Question: What about the AST (9 h) of the same molecule?
Answer: 77 IU/L

Question: And the BUN (9 h)?
Answer: 9.6 mg/dL

Question: And the CRE (9 h)?
Answer: 0.2 mg/dL

Question: What about the Ca (9 h) of the same molecule?
Answer: 10.5 mg/dL

Question: And the Cl (9 h)?
Answer: 108 meq/L

Question: And the DBIL (9 h)?
Answer: 0.002 mg/dL

Question: What about the GLC (9 h) of the same molecule?
Answer: 176.6 mg/dL

Question: What about the IP (9 h) of the same molecule?
Answer: 9.7 mg/dL

Question: And the K (9 h)?
Answer: 3.9 meq/L

Question: What about the LDH (9 h) of the same molecule?
Answer: 76.4 IU/L

Question: What about the Na (9 h) of the same molecule?
Answer: 141.4 meq/L

Question: What about the PL (9 h) of the same molecule?
Answer: 133.6 mg/dL

Question: What about the RALB (9 h) of the same molecule?
Answer: 2.5 g/dL

Question: And the TBIL (9 h)?
Answer: 0.064 mg/dL

Question: And the TC (9 h)?
Answer: 72.8 mg/dL

Question: And the TG (9 h)?
Answer: 31.2 mg/dL

Question: And the TP (9 h)?
Answer: 5.4 g/dL

Question: What about the gamma-GTP (9 h) of the same molecule?
Answer: 1.2 IU/L

Question: What about the TERMINAL_BW (24 h) of the same molecule?
Answer: 223.7 g

Question: And the APTT (24 h)?
Answer: 17.1 s

Question: And the Bas (24 h)?
Answer: 0%

Question: What about the Eos (24 h) of the same molecule?
Answer: 1%

Question: And the Fbg (24 h)?
Answer: 254 mg/dL

Question: What about the Hb (24 h) of the same molecule?
Answer: 13.1 g/dL

Question: And the Ht (24 h)?
Answer: 39.5%

Question: And the Lym (24 h)?
Answer: 77.2%

Question: And the MCH (24 h)?
Answer: 21.8 pg

Question: And the MCHC (24 h)?
Answer: 33%

Question: And the MCV (24 h)?
Answer: 66.1 fL

Question: And the Mono (24 h)?
Answer: 3%

Question: What about the Neu (24 h) of the same molecule?
Answer: 18.2%

Question: And the PT (24 h)?
Answer: 13.3 s

Question: What about the Plat (24 h) of the same molecule?
Answer: 113.7 x10_4/uL

Question: And the RBC (24 h)?
Answer: 598 x10_4/ul

Question: And the Ret (24 h)?
Answer: 7.3%

Question: And the WBC (24 h)?
Answer: 99.1 x10_2/uL

Question: What about the KIDNEY_L (24 h) of the same molecule?
Answer: 1 g

Question: And the KIDNEY_R (24 h)?
Answer: 0.9 g

Question: And the KIDNEY_TOTAL (24 h)?
Answer: 1.9 g

Question: And the LIVER (24 h)?
Answer: 10.4 g

Question: What about the A/G (24 h) of the same molecule?
Answer: 0.9

Question: What about the ALP (24 h) of the same molecule?
Answer: 1802.2 IU/L

Question: And the ALT (24 h)?
Answer: 47.2 IU/L

Question: And the AST (24 h)?
Answer: 74.8 IU/L

Question: And the BUN (24 h)?
Answer: 15 mg/dL

Question: What about the CRE (24 h) of the same molecule?
Answer: 0.2 mg/dL

Question: And the Ca (24 h)?
Answer: 10.9 mg/dL

Question: What about the Cl (24 h) of the same molecule?
Answer: 104.8 meq/L

Question: And the DBIL (24 h)?
Answer: 0.01 mg/dL

Question: And the GLC (24 h)?
Answer: 165.4 mg/dL

Question: And the IP (24 h)?
Answer: 7.8 mg/dL

Question: What about the K (24 h) of the same molecule?
Answer: 4 meq/L

Question: What about the LDH (24 h) of the same molecule?
Answer: 82 IU/L

Question: What about the Na (24 h) of the same molecule?
Answer: 142.8 meq/L

Question: And the PL (24 h)?
Answer: 161 mg/dL

Question: And the RALB (24 h)?
Answer: 2.6 g/dL

Question: What about the TBIL (24 h) of the same molecule?
Answer: 0.056 mg/dL

Question: And the TC (24 h)?
Answer: 85.6 mg/dL

Question: And the TG (24 h)?
Answer: 92.2 mg/dL

Question: And the TP (24 h)?
Answer: 5.6 g/dL

Question: And the gamma-GTP (24 h)?
Answer: 1 IU/L

— ChEMBL document CHEMBL3885861, “Open TG-GATES”
